Source: US10758534B2 (Vertex Pharmaceuticals Incorporated, priority 2014, dated 2020)

biological target: T1, F508del (Homo sapiens, UniProt P13569, DEL508-508); assay: Protocol 2: FRET membrane potential optical assay (VIPR), identification of correction compounds; format: cell-based; details: F508del CFTR modulator activity; compounds of Table 1; read-out: EC30
T1 construct: expressed in transfected cells
Summary of the method: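 NIH3T3 mouse fibroblasts stably expressing F508del-CFTR incubated with compound 16 h at 37 °C in serum-free medium, then loaded with CC2-DMPE/DiSBAC2(3) FRET dyes. Channel activated with 10 μM forskolin plus 20 μM genistein in Cl⁻-free (gluconate) bath; depolarisation from Cl⁻ efflux read on VIPR II.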

T1 sequence (P13569 with tags, fused parts or gaps DEL508-508): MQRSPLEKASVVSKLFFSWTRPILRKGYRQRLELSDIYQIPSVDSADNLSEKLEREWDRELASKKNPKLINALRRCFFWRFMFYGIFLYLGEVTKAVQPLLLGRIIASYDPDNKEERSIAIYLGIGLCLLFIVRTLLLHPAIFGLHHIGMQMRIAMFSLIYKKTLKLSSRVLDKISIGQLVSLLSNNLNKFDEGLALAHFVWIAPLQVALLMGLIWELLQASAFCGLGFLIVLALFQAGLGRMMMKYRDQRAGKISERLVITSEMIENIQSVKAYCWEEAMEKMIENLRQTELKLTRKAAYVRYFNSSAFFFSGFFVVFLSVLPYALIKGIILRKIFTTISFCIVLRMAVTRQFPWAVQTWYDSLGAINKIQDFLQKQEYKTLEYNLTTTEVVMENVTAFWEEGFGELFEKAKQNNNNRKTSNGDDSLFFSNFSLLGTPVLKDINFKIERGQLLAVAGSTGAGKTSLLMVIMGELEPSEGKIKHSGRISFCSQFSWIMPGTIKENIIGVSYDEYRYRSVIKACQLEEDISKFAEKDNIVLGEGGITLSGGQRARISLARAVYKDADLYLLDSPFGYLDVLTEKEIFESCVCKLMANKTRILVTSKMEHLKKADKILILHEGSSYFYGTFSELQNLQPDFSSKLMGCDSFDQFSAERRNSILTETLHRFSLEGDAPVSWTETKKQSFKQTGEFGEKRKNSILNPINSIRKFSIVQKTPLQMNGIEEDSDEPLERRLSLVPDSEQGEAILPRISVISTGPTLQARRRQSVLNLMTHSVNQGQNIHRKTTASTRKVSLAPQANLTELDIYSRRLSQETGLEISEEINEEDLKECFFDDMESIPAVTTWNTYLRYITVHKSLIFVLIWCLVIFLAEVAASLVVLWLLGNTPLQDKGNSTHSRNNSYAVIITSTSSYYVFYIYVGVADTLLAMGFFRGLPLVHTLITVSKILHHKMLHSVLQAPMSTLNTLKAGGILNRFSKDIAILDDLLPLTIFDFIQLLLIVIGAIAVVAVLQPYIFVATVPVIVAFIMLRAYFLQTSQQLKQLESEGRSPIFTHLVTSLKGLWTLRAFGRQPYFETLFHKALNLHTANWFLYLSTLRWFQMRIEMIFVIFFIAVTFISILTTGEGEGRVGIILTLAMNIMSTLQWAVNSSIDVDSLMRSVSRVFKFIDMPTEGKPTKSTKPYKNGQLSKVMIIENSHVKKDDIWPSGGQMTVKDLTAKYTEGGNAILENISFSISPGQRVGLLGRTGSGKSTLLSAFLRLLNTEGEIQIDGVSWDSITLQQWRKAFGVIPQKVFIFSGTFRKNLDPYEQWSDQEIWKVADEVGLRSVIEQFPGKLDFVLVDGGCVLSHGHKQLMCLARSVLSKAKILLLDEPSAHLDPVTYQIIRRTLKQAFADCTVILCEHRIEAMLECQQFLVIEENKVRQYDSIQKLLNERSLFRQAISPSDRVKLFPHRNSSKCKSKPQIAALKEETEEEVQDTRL

| Structure (SMILES) | EC30 [nM] |
| --- | --- |
| Cc1cc(-c2ccc(C(=O)NS(=O)(=O)c3cccc(N)n3)c(N3C[C@@H](C)CC3(C)C)n2)cnc1N(C)CC(C)C [Compound 2279, N-[(6-amino-2-pyridyl)sulfonyl]-6-[6-[isobutyl(methyl)amino]-5-methyl-3-pyridyl]-2-[(4S)-2,2,4-trimethylpyrrolidin-1-yl]pyridine-3-carboxamide] | < 3000 |
| C[C@@H]1CN(c2nc(-c3ccc(F)c(F)c3)ccc2C(=O)NS(=O)(=O)c2ccc[nH]c2=O)C(C)(C)C1 [Compound 2284, 6-(3,4-difluorophenyl)-N-[(2-oxo-1H-pyridin-3-yl)sulfonyl]-2-[(4S)-2,2,4-trimethylpyrrolidin-1-yl]pyridine-3-carboxamide] | < 3000 |
| CC1CN(c2ncccc2C(=O)NS(=O)(=O)c2cccc(OCc3ccc(C(C)(C)C)cc3)n2)C(C)(C)C1 (stereo not drawn) [Compound 2286, N—[[6-[(4-tert-butylphenyl)methoxy]-2-pyridyl]sulfonyl]-2-(2,2,4-trimethylpyrrolidin-1-yl)pyridine-3-carboxamide] | < 3000 |
| Cc1cccc(-c2ccc(C(=O)NS(=O)(=O)c3cccc(N)n3)c(N3C[C@@H](C)CC3(C)C)n2)c1C [Compound 2287, N-[(6-amino-2-pyridyl)sulfonyl]-6-(2,3-dimethylphenyl)-2-[(4S)-2,2,4-trimethylpyrrolidin-1-yl]pyridine-3-carboxamide] | < 3000 |
| CC(C)COc1cc(F)cc(-c2ccc(C(=O)NS(=O)(=O)c3cccc(N)n3)c(N(C)CC3CCCCC3)n2)c1 [Compound 2289, N-[(6-amino-2-pyridyl)sulfonyl]-2-[cyclohexylmethyl(methyl)amino]-6-(3-fluoro-5-isobutoxy-phenyl)pyridine-3-carboxamide] | < 3000 |
| CC(C)n1cc(-c2ccc(C(=O)NS(=O)(=O)c3cccnc3N)c(N3C[C@@H](C)CC3(C)C)n2)cn1 [Compound 2290, N-[(2-amino-3-pyridyl)sulfonyl]-6-(1-isopropylpyrazol-4-yl)-2-[(4S)-2,2,4-trimethylpyrrolidin-1-yl]pyridine-3-carboxamide] | 3000 to 10000 |
| C[C@@H]1CN(c2nc(-c3cccc(F)c3F)ccc2C(=O)NS(=O)(=O)c2cccnc2N)C(C)(C)C1 [Compound 2291, N-[(2-amino-3-pyridyl)sulfonyl]-6-(2,3-difluorophenyl)-2-[(4S)-2,2,4-trimethylpyrrolidin-1-yl]pyridine-3-carboxamide] | < 3000 |
| CC1CN(c2ncccc2C(=O)NS(=O)(=O)c2cccc(Nc3ccc(C(F)(F)F)cc3)n2)C(C)(C)C1 (stereo not drawn) [Compound 2292, N—[[6-[4-(trifluoromethyl)anilino]-2-pyridyl]sulfonyl]-2-(2,2,4-trimethylpyrrolidin-1-yl)pyridine-3-carboxamide] | < 3000 |
| COc1cc(OC)cc(Oc2cccc(S(=O)(=O)NC(=O)c3cccnc3N3CC(C)CC3(C)C)n2)c1 (stereo not drawn) [Compound 2293, N—[[6-(3,5-dimethoxyphenoxy)-2-pyridyl]sulfonyl]-2-(2,2,4-trimethylpyrrolidin-1-yl)pyridine-3-carboxamide] | < 3000 |
| C[C@@H]1CN(c2nc(-c3cc(F)ccc3O)ccc2C(=O)NS(=O)(=O)c2ccc[nH]c2=O)C(C)(C)C1 [Compound 2295, 6-(5-fluoro-2-hydroxy-phenyl)-N-[(2-oxo-1H-pyridin-3-yl)sulfonyl]-2-[(4S)-2,2,4-trimethylpyrrolidin-1-yl]pyridine-3-carboxamide] | 3000 to 10000 |
| C[C@@H]1CN(c2nc(-c3ccc(C(F)(F)F)cc3)ccc2C(=O)NS(=O)(=O)c2cccc(N)n2)C(C)(C)C1 [Compound 2296, N-[(6-amino-2-pyridyl)sulfonyl]-6-[4-(trifluoromethyl)phenyl]-2-[(4S)-2,2,4-trimethylpyrrolidin-1-yl]pyridine-3-carboxamide] | < 3000 |
| CC1CN(c2ncccc2C(=O)NS(=O)(=O)c2cccc(OCc3cccc(C#N)c3)n2)C(C)(C)C1 (stereo not drawn) [Compound 2299, N—[[6-[(3-cyanophenyl)methoxy]-2-pyridyl]sulfonyl]-2-(2,2,4-trimethylpyrrolidin-1-yl)pyridine-3-carboxamide] | < 3000 |
| COc1ccc(-c2ccc(C(=O)NS(=O)(=O)c3cccnc3N)c(N3C[C@@H](C)CC3(C)C)n2)c(F)c1F [Compound 2302, N-[(2-amino-3-pyridyl)sulfonyl]-6-(2,3-difluoro-4-methoxy-phenyl)-2-[(4S)-2,2,4-trimethylpyrrolidin-1-yl]pyridine-3-carboxamide] | < 3000 |
| CC1CN(c2ncc(-c3ccc(C#N)cc3)cc2C(=O)NS(=O)(=O)c2cccc(N)n2)C(C)(C)C1 (stereo not drawn) [Compound 2304, N-[(6-amino-2-pyridyl)sulfonyl]-5-(4-cyanophenyl)-2-(2,2,4-trimethylpyrrolidin-1-yl)pyridine-3-carboxamide] | < 3000 |
| Cc1cc(-c2ccc(C(=O)NS(=O)(=O)c3cccc(N)n3)c(N3C[C@@H](C)CC3(C)C)n2)cc(OC(C)C)n1 [Compound 2306, N-[(6-amino-2-pyridyl)sulfonyl]-6-(2-isopropoxy-6-methyl-4-pyridyl)-2-[(4S)-2,2,4-trimethylpyrrolidin-1-yl]pyridine-3-carboxamide] | < 3000 |
| CCCCN(C)c1cccc(S(=O)(=O)NC(=O)c2cccnc2N2CC(C)CC2(C)C)n1 (stereo not drawn) [Compound 2307, N—[[6-[butyl(methyl)amino]-2-pyridyl]sulfonyl]-2-(2,2,4-trimethylpyrrolidin-1-yl)pyridine-3-carboxamide] | < 3000 |
| CC1CN(c2ncccc2C(=O)NS(=O)(=O)c2cccc(OCc3ccco3)n2)C(C)(C)C1 (stereo not drawn) [Compound 2308, N—[[6-(2-furylmethoxy)-2-pyridyl]sulfonyl]-2-(2,2,4-trimethylpyrrolidin-1-yl)pyridine-3-carboxamide] | < 3000 |

Results, then the compound that gave them:

| EC30 [nM] | Structure (SMILES) |
| --- | --- |
| < 3000 | CCOc1cc(F)cc(-c2ccc(C(=O)NS(=O)(=O)c3ccc[nH]c3=O)c(N3C[C@@H](C)CC3(C)C)n2)c1 [Compound 2278, 6-(3-ethoxy-5-fluoro-phenyl)-N-[(2-oxo-1H-pyridin-3-yl)sulfonyl]-2-[(4S)-2,2,4-trimethylpyrrolidin-1-yl]pyridine-3-carboxamide] |
| < 3000 | C[C@@H]1CN(c2nc(-c3ccc4ccccc4c3)ccc2C(=O)NS(=O)(=O)c2cccnc2N)C(C)(C)C1 [Compound 2280, N-[(2-amino-3-pyridyl)sulfonyl]-6-(2-naphthyl)-2-[(4S)-2,2,4-trimethylpyrrolidin-1-yl]pyridine-3-carboxamide] |
| < 3000 | CC1CN(c2ncccc2C(=O)NS(=O)(=O)c2cccc(Nc3cc(F)cc(F)c3)n2)C(C)(C)C1 (stereo not drawn) [Compound 2282, N—[[6-(3,5-difluoroanilino)-2-pyridyl]sulfonyl]-2-(2,2,4-trimethylpyrrolidin-1-yl)pyridine-3-carboxamide] |
| < 3000 | CC1CN(c2ncc(-c3ccccc3OC(C)C)cc2C(=O)NS(=O)(=O)c2cccc(N)n2)C(C)(C)C1 (stereo not drawn) [Compound 2283, N-[(6-amino-2-pyridyl)sulfonyl]-5-(2-isopropoxyphenyl)-2-(2,2,4-trimethylpyrrolidin-1-yl)pyridine-3-carboxamide] |
| < 3000 | Cc1cccc(N2CCN(c3cccc(S(=O)(=O)NC(=O)c4cccnc4N4CC(C)CC4(C)C)n3)CC2)n1 (stereo not drawn) [Compound 2285, N—[[6-[4-(6-methyl-2-pyridyl)piperazin-1-yl]-2-pyridyl]sulfonyl]-2-(2,2,4-trimethylpyrrolidin-1-yl)pyridine-3-carboxamide] |
| < 3000 | CC1CN(c2ncc(-c3ccc(N(C)C)cc3)cc2C(=O)NS(=O)(=O)c2cccc(N)n2)C(C)(C)C1 (stereo not drawn) [Compound 2288, N-[(6-amino-2-pyridyl)sulfonyl]-5-(4-dimethylaminophenyl)-2-(2,2,4-trimethylpyrrolidin-1-yl)pyridine-3-carboxamide] |
| 3000 to 10000 | Cc1cccc(COc2cccc(S(=O)(=O)NC(=O)c3cccnc3N3CC(C)CC3(C)C)n2)n1 (stereo not drawn) [Compound 2294, N—[[6-[(6-methyl-2-pyridyl)methoxy]-2-pyridyl]sulfonyl]-2-(2,2,4-trimethylpyrrolidin-1-yl)pyridine-3-carboxamide] |
| < 3000 | CC1CN(c2ncccc2C(=O)NS(=O)(=O)c2cccc(N3CCCC(Cc4ccccc4)C3)n2)C(C)(C)C1 (stereo not drawn) [Compound 2297, N—[[6-(3-benzyl-1-piperidyl)-2-pyridyl]sulfonyl]-2-(2,2,4-trimethylpyrrolidin-1-yl)pyridine-3-carboxamide] |
| < 3000 | CC1CN(c2ncccc2C(=O)NS(=O)(=O)c2cccc(Oc3ccccc3Cl)n2)C(C)(C)C1 (stereo not drawn) [Compound 2298, N—[[6-(2-chlorophenoxy)-2-pyridyl]sulfonyl]-2-(2,2,4-trimethylpyrrolidin-1-yl)pyridine-3-carboxamide] |
| 3000 to 10000 | Cc1cccc(-c2ccc(C(=O)NS(=O)(=O)c3ccc[nH]c3=O)c(N3C[C@@H](C)CC3(C)C)n2)c1O [Compound 2300, 6-(2-hydroxy-3-methyl-phenyl)-N-[(2-oxo-1H-pyridin-3-yl)sulfonyl]-2-[(4S)-2,2,4-trimethylpyrrolidin-1-yl]pyridine-3-carboxamide] |
| < 3000 | CCOc1cc(C)cc(-c2ccc(C(=O)NS(=O)(=O)c3cc[nH]n3)c(Oc3c(C)cc(C)cc3C)n2)n1 [Compound 2301, 6-(6-ethoxy-4-methyl-2-pyridyl)-N-(1H-pyrazol-3-ylsulfonyl)-2-(2,4,6-trimethylphenoxy)pyridine-3-carboxamide] |
| 3000 to 10000 | CC(C)Cn1ccc(-c2cnc(N3CC(C)CC3(C)C)c(C(=O)NS(=O)(=O)c3cccc(N)n3)c2)n1 (stereo not drawn) [Compound 2303, N-[(6-amino-2-pyridyl)sulfonyl]-5-(1-isobutylpyrazol-3-yl)-2-(2,2,4-trimethylpyrrolidin-1-yl)pyridine-3-carboxamide] |
| < 3000 | CCC(CC)CNc1cccc(S(=O)(=O)NC(=O)c2cccnc2N2CC(C)CC2(C)C)n1 (stereo not drawn) [Compound 2305, N—[[6-(2-ethylbutylamino)-2-pyridyl]sulfonyl]-2-(2,2,4-trimethylpyrrolidin-1-yl)pyridine-3-carboxamide] |
